How the values were obtained:
[1] = system: Estrogen response element (ERE)-luciferase reporter in NAMEC8; assay: ERE-luciferase activity assay; type: cell-based, human
Method: ERE luciferase construct was kindly provided by Alan Prem Kumar, CSI, Singapore. To measure the ERE-luciferase activity, cells were seeded 24 h before transfection. ERE-luciferase (1 μg) and NSV-Renilla (0.1 μg) were packaged using Lipofectamine 2000 and transfected into NAMEC8. 24 h post-transfection, cells were reseeded into 96 well plates for drug treatment. Firefly and Renilla luciferase activities were measured with the Dual-Glo Luciferase System (Promega) 24 h post-treatment.

[2] = system: NAMEC8; assay: Lipidomic analysis (LC-MS/MS); type: cell-based, human; details: NAMEC8 bexarotene vs DMSO
Source text: Lipids from cell pellets were extracted using butanol:methanol (1:1) as extraction solvent. The extraction solvent included an internal standard mixture consisting of 17:0 LPC (Lysophosphocholine), C14 LPE (Lysophosphoethanolamine), C17 Ceramide, C17 phosphocholine, C17 phosphoserine, C17:0 PG, C8-Ceramide, DMPE (1,2-dimyristoyl-glycero-3-phosphoethanolamine), DMPG (1,2-dimyristoyl-glycero-3-phospho-(1′rac-glycerol), DMPS (dimyristoyl-glycero-phosphoserine), 12:0 DG (1,2-dilauroyl-sn-glycerol), C8 GluCer (D-glucosyl-β1-1′-N-octanoyl-D-erythro-sphingosine), 24:0 SM (N-lignoceroyl-D-erythro-sphingosylphosphorylcholine), 24:1 SM (N-nervonoyl-D-erythro-sphingosylphosphorylcholine), d5-TAG 48:0. All the standards were obtained from Avanti Polar Lipids (Alabaster, AL, USA) except for d5-TAG 48:0 that was obtained from CDN isotopes. All standards were added to a final concentration of 100 ng/ml. 100 μl of the extraction solvent including the standards were added to 1×10^7 cells in a vial containing the cell pellet. The mixture was vortexed for 15 s. […]
Samples were analysed with a liquid chromatography-tandem mass spectrometry (LC-MS/MS) system (Agilent 1290 UHPLC connected to Agilent 6490 QQQ). […] Lipids were quantified in positive multiple reaction monitoring (MRM) mode. […] Data were extracted using MassHunter Quantitative Analysis software (Agilent). […]

[3] = system: SERPINE1prom-Luc reporter in NAMEC8 cells; assay: Dual-Glo luciferase assay of SERPINE1prom-Luc reporter (FF/Ren); type: cell-based, human; details: Homo sapiens, 72 h, primary screen; NAMEC8-SERPINE1prom-Luc cells grown 3 days with compound; relative to DMSO; read-out: Avr FF/Renilla from DMSO
Source text: pGreenFire1-mCMV was cut using ClaI and SpeI and gel purified. Promoter sequences of genes Zeb1, Serpine1, CDH1, CD24, CD44, CD166 were amplified from human genomic DNA with pre-designed primers containing ClaI and SpeI restriction cut sites using AccuPrime Taq DNA Polymerase (Thermo Fisher Scientific). PCR products were then digested with restriction enzymes and gel-purified. Vector was ligated with PCR insert using Quick Ligase (Fermentas) and transformed into Stb12 competent cells. Colonies were picked and inoculated into TB media with ampicillin. Plasmids were then isolated using a plasmid miniprep kit (Qiagen) and sent for sequencing (1 stBASE Laboratories). After verifying the plasmid sequence, transfection into HEK293 cells was carried out to generate lentivirus. Transfection was carried out using FuGENE 6 (Promega). Viral supernatant was harvested at 24 h and 48 h. NAMEC8 cells were then infected twice with virus using polybrene ([…]) and checked for good transduction efficiency using Dual-Glo Luciferase System (Promega).
Stock plates of compound libraries were kindly prepared by GIS CHiP facility at 1 mM concentration in DMSO. NAMEC8-SERPINE1prom-Luc cells were seeded into 384 well plates at a density of 700 cells/well in a total volume of 50 μl, using an automated dispensing system (BioTek). 0.5 μl of compounds were then added to the wells the following day using a robotic pin transfer with a Bravo workstation (Agilent Technologies). Cells were then grown for 3 days and promoter-luciferase activity was measured using the Dual-Glo Luciferase System (Promega).
Assay was carried out according to manufacturer's instructions. To measure luciferase activity in 384 well plates, media was first removed from the plate. Firefly luciferase activity was determined by adding 30 μl Dual-Glo Luciferase substrate (Promega) to the wells and incubated for 10 min before measuring luminescence using a TECAN M1000 Pro plate reader. 15 μl Dual-Glo Stop & Glo substrate was then added to the wells, incubated for 10 min and measuring luminescence on the plate reader to determine Renilla luciferase activity. Promoter luciferase activity is then calculated by taking Firefly luciferase over Renilla luciferase.

[4] = system: SUM159 PACR cells; assay: Cell viability IC50 in SUM159 PACR cells; details: SUM159 PACR

In the case of C=C(c1ccc(C(=O)O)cc1)c1cc2c(cc1C)C(C)(C)CCC2(C)C [Bexarotene], the ERE-luciferase reporter activity [1] is reported as “increased”, the “lipid species content (PI, PG, PC, PE, PS)” value [2] is reported as “dramatically increased” and the activity at 10 µM [3] is reported as 31%. For the same compound, the “sensitivity to 5-FU of bexarotene-treated PACR cells” value [4] was “gained sensitivity to an alternative chemotherapeutic drug, 5-flurouracil (5-FU)”.
